Test results taken from patent publication US20260055104A1, “CRYSTAL FORM OF HETEROARYL DERIVATIVE PARP INHIBITOR AND USE THEREOF” (priority 2022, published 2026).

What was measured:
[1] = Stability test of crystal form (purity by HPLC); format: physicochemical
Experimental: Samples were taken and tested at 92.5% RH, 40° C. and 60° C. respectively. The purity (represented by a percentage) was detected by HPLC.
With regard to methods for preparing test solutions and conditions for detecting purity by HPLC, reference was made to Tables 13 and 14.

[2] = system: MDA-MB-436 subcutaneous transplanted tumor; test: Mouse MDA-MB-436 subcutaneous in vivo transplanted tumor model; design: species or system BALB/c nude mice
Experimental: Human breast cancer cells MDA-MB-436 were placed in Leibovitz's L-15 medium (supplemented with 10 μg/mL insulin, 16 μg/mL glutathione, 10% fetal bovine serum and 1% penicillin-streptomycin solution) and cultured at 37° C. Conventional digestion treatment with trypsin was performed twice a week for passage. When the cell saturation was 80%-90%, and the number reached the requirement, the cells were harvested, counted, and inoculated. BALB/c nude mice (from Beijing Vital River Laboratory Animal Technology Co., Ltd.) were subcutaneously inoculated with 0.2 mL (10×10^6) of MDA-MB-436 cells (plus matrigel, with the volume ratio of 1:1) on the right back. When the average tumor volume reached about 180 mm^3, grouping and administration were performed (marked as Day 0). The solvent group was given 5% DMSO, 30% PEG400 and 65% of 20% sulfobutyl-β-cyclodextrin solution, and the administration group was given the compound (Day 0-Day 10:1 mg/kg; Day 11-Day 28:0.1 mg/kg). The administration frequency was once a day, the administration cycle was 29 days, and the drug withdrawal observation period was set to 14 days. After grouping, the tumor diameter was measured twice a week with a vernier caliper. The formula for calculating the tumor volume was: V=0.5×a×b^2, where a and b represented the long and short diameters of the tumor, respectively.

[3] = system: Human breast cancer cells MDA-MB-436; test: MDA-MB-436 cell activity test (CellTiter-Glo); format: cell-based; settings: 168 h, MDA-MB-436, 7 days incubation
Experimental: On day 1, the cells in the exponential growth phase were collected, and the cell suspension was adjusted to 4000 cells/135 μL with the culture medium. 135 μL of the cell suspension was added to each well of a 96-well cell culture plate and incubated overnight. On day 2, compounds at different concentrations were added, and the plate was placed in the incubator and incubated for 7 days. After the incubation was completed, according to operation instructions for a CellTiter-Glo kit (Promega, G7573), 75 μL of CTG solution, which had already been pre-melted and equilibrated to room temperature, was added to each well, and the mixture was uniformly mixed for 2 min using a microplate shaker. The plate was placed at room temperature for 10 min, and then […] signal values were measured using an Envision2104 plate reader (PerkinElmer). […] The IC50 value was calculated using GraphPad Prism software.

[4] = Pharmacokinetic test in rats; format: in vivo, SD rats; settings: rat, i.g. 10 mg/kg
Experimental: • 1.1 Experimental animals: male SD rats, about 220 g, 6-8 weeks old, 6 rats/compound. Purchased from Chengdu Ddossy Experimental Animals Co., Ltd. • 1.2 Experimental design: on the day of the experiment, 6 SD rats were randomly grouped according to their body weights. The animals were fasted with water available for 12 to 14 h one day before the administration and were fed 4 h after the administration. [table] Before and after the administration, 0.15 mL of blood was taken from the orbit of the animals under isoflurane anesthesia and placed in an EDTAK2 centrifuge tube. The blood was centrifuged at 5000 rpm and 4° C. for 10 min to collect plasma. The blood collection time points for the intravenous administration group and intragastric administration group were: 0, 5 min, 15 min, 30 min, 1 h, 2 h, 4 h, 6 h, 8 h and 24 h. Before analysis and detection, all samples were stored at −80° C. The samples were analyzed quantitatively by LC-MS/MS.

Structure (SMILES): CCc1cc2ncc(CN3CCN(c4ccc(C(=O)NC5CC5)nc4)CC3)cc2[nH]c1=O [crystal form G, N-cyclopropyl-5-(4-((7-ethyl-6-oxo-5,6-dihydro-1,5-naphthyridin-3-yl)methyl)piperazin-1-yl)pyridine carboxamide]
- Maximum individual impurity ([1]; 0 d): 0.494%
- RRT 0.31 impurity ([1]; 0 d): 0.494%
- RRT 0.36 impurity ([1]; 0 d): 0.071%
- RRT 0.49 impurity ([1]; 0 d): 0.170%
- RRT 0.72 impurity ([1]; 0 d): 0.248%
- RRT 1.00 (purity by HPLC) ([1]; 0 d): 98.425%
- RRT 1.14 impurity ([1]; 0 d): 0.065%
- RRT 1.33 impurity ([1]; 0 d): 0.079%
- Total impurity ([1]; 0 d): 1.575%
- Maximum individual impurity ([1]; 40° C.-6 d): 0.438%
- RRT 0.31 impurity ([1]; 40° C.-6 d): 0.438%
- RRT 0.36 impurity ([1]; 40° C.-6 d): 0.097%
- RRT 0.49 impurity ([1]; 40° C.-6 d): 0.195%
- RRT 0.72 impurity ([1]; 40° C.-6 d): 0.241%
- RRT 1.00 (purity by HPLC) ([1]; 40° C.-6 d): 98.494%
- RRT 1.14 impurity ([1]; 40° C.-6 d): 0.071%
- RRT 1.33 impurity ([1]; 40° C.-6 d): 0.069%
- Total impurity ([1]; 40° C.-6 d): 1.506%
- Maximum individual impurity ([1]; 40° C.-10 d): 0.507%
- RRT 0.31 impurity ([1]; 40° C.-10 d): 0.507%
- RRT 0.36 impurity ([1]; 40° C.-10 d): 0.100%
- RRT 0.49 impurity ([1]; 40° C.-10 d): 0.194%
- RRT 0.72 impurity ([1]; 40° C.-10 d): 0.232%
- RRT 1.00 (purity by HPLC) ([1]; 40° C.-10 d): 98.459%
- RRT 1.14 impurity ([1]; 40° C.-10 d): 0.069%
- RRT 1.33 impurity ([1]; 40° C.-10 d): 0.061%
- Total impurity ([1]; 40° C.-10 d): 1.541%
- Maximum individual impurity ([1]; 40° C.-30 d): 0.467%
- RRT 0.31 impurity ([1]; 40° C.-30 d): 0.467%
- RRT 0.36 impurity ([1]; 40° C.-30 d): 0.115%
- RRT 0.49 impurity ([1]; 40° C.-30 d): 0.144%
- RRT 0.72 impurity ([1]; 40° C.-30 d): 0.252%
- RRT 1.00 (purity by HPLC) ([1]; 40° C.-30 d): 98.519%
- RRT 1.14 impurity ([1]; 40° C.-30 d): 0.077%
- RRT 1.33 impurity ([1]; 40° C.-30 d): 0.060%
- Total impurity ([1]; 40° C.-30 d): 1.481%
- Maximum individual impurity ([1]; 60° C.-6 d): 0.452%
- RRT 0.31 impurity ([1]; 60° C.-6 d): 0.452%
- RRT 0.36 impurity ([1]; 60° C.-6 d): 0.097%
- RRT 0.49 impurity ([1]; 60° C.-6 d): 0.193%
- RRT 0.72 impurity ([1]; 60° C.-6 d): 0.229%
- RRT 1.00 (purity by HPLC) ([1]; 60° C.-6 d): 98.522%
- RRT 1.14 impurity ([1]; 60° C.-6 d): 0.070%
- RRT 1.33 impurity ([1]; 60° C.-6 d): 0.064%
- Total impurity ([1]; 60° C.-6 d): 1.478%
- Maximum individual impurity ([1]; 60° C.-10 d): 0.498%
- RRT 0.31 impurity ([1]; 60° C.-10 d): 0.498%
- RRT 0.36 impurity ([1]; 60° C.-10 d): 0.103%
- RRT 0.49 impurity ([1]; 60° C.-10 d): 0.206%
- RRT 0.72 impurity ([1]; 60° C.-10 d): 0.247%
- RRT 1.00 (purity by HPLC) ([1]; 60° C.-10 d): 98.447%
- RRT 1.14 impurity ([1]; 60° C.-10 d): 0.068%
- RRT 1.33 impurity ([1]; 60° C.-10 d): 0.069%
- Total impurity ([1]; 60° C.-10 d): 1.553%
- Maximum individual impurity ([1]; 60° C.-30 d): 0.457%
- RRT 0.31 impurity ([1]; 60° C.-30 d): 0.457%
- RRT 0.36 impurity ([1]; 60° C.-30 d): 0.112%
- RRT 0.49 impurity ([1]; 60° C.-30 d): 0.145%
- RRT 0.72 impurity ([1]; 60° C.-30 d): 0.244%
- RRT 1.00 (purity by HPLC) ([1]; 60° C.-30 d): 98.499%
- RRT 1.14 impurity ([1]; 60° C.-30 d): 0.084%
- RRT 1.33 impurity ([1]; 60° C.-30 d): 0.056%
- Total impurity ([1]; 60° C.-30 d): 1.501%
- chemical stability ([1]; 92.5% RH, 40° C. and 60° C., up to 30 d): good chemical stability
- Maximum individual impurity ([1]; 92.5% RH-6 d): 0.468%
- RRT 0.31 impurity ([1]; 92.5% RH-6 d): 0.468%
- RRT 0.36 impurity ([1]; 92.5% RH-6 d): 0.107%
- RRT 0.49 impurity ([1]; 92.5% RH-6 d): 0.191%
- RRT 0.72 impurity ([1]; 92.5% RH-6 d): 0.244%
- RRT 1.00 (purity by HPLC) ([1]; 92.5% RH-6 d): 98.503%
- RRT 1.14 impurity ([1]; 92.5% RH-6 d): 0.068%
- RRT 1.33 impurity ([1]; 92.5% RH-6 d): 0.066%
- Total impurity ([1]; 92.5% RH-6 d): 1.497%
- Maximum individual impurity ([1]; 92.5% RH-10 d): 0.518%
- RRT 0.31 impurity ([1]; 92.5% RH-10 d): 0.518%
- RRT 0.36 impurity ([1]; 92.5% RH-10 d): 0.110%
- RRT 0.49 impurity ([1]; 92.5% RH-10 d): 0.206%
- RRT 0.72 impurity ([1]; 92.5% RH-10 d): 0.246%
- RRT 1.00 (purity by HPLC) ([1]; 92.5% RH-10 d): 98.358%
- RRT 1.14 impurity ([1]; 92.5% RH-10 d): 0.073%
- RRT 1.33 impurity ([1]; 92.5% RH-10 d): 0.066%
- Total impurity ([1]; 92.5% RH-10 d): 1.642%
- Maximum individual impurity ([1]; 92.5% RH-30 d): 0.475%
- RRT 0.31 impurity ([1]; 92.5% RH-30 d): 0.475%
- RRT 0.36 impurity ([1]; 92.5% RH-30 d): 0.099%
- RRT 0.49 impurity ([1]; 92.5% RH-30 d): 0.137%
- RRT 0.72 impurity ([1]; 92.5% RH-30 d): 0.243%
- RRT 1.00 (purity by HPLC) ([1]; 92.5% RH-30 d): 98.499%
- RRT 1.14 impurity ([1]; 92.5% RH-30 d): 0.075%
- RRT 1.33 impurity ([1]; 92.5% RH-30 d): 0.056%
- Total impurity ([1]; 92.5% RH-30 d): 1.501%

Structure (SMILES): CCc1cc2ncc(CN3CCN(c4ccc(C(=O)NC5CC5)nc4)CC3)cc2[nH]c1=O [Compound I, N-cyclopropyl-5-(4-((7-ethyl-6-oxo-5,6-dihydro-1,5-naphthyridin-3-yl)methyl)piperazin-1-yl)pyridine carboxamide]
- tumor growth after the drug withdrawal ([2]; 14 days drug withdrawal observation): did not grow again
- body weight of the animals ([2]; Day 0-10 1 mg/kg, Day 11-28 0.1 mg/kg, once a day): no significant decrease
- TGI ([2]; after 28 days of administration, Day 0-10 1 mg/kg, Day 11-28 0.1 mg/kg, once a day): 119%
- inhibition at 10 µM ([3]; 10 μM, read-out: Max inh. % 10 μM): 89.4%
- IC50 [3]: 2 nM
- F [4]: 98.8%
